Consider 2 compounds from ChEMBL document CHEMBL4414672, “Synthesis of certain benzothieno[3,2-d]pyrimidine derivatives as a selective SIRT2 inhibitors” (Eur J Med Chem, 2020).

Values after ≈ are worked out from the molar mass of the structure shown.

Assay [1] relates to UO-31. Briefly: Cytotoxicity against human UO31 cells assessed as reduction in cell viability after 24 hrs by MTT assay. Conditions: UO-31, 24 h. In kind it is functional, cell-based.
For assay [2], the system named is MCF7. Briefly: Cytotoxicity against human MCF7 cells assessed as reduction in cell viability after 24 hrs by MTT assay. In kind it is functional, cell-based. As to conditions: MCF7, 24 h.
A further assay deals with CAKI-1. Briefly: Growth inhibition of human Caki1 cells at 10^-5 M incubated for 48 hrs by sulforhodamine B assay. As to conditions: CAKI-1, 48 h, read-out: GI. In kind it is functional.
The test system of another assay is T47D. Briefly: Growth inhibition of human T47D cells at 10^-5 M incubated for 48 hrs by sulforhodamine B assay. As to conditions: read-out: GI. In kind it is functional.
For another assay, the system named is PC-3. Briefly: Growth inhibition of human PC3 cells at 10^-5 M incubated for 48 hrs by sulforhodamine B assay. It is filed as functional. Conditions: PC-3, 48 h, read-out: GI.
Assay [3] deals with MCF7. Put plainly: Growth inhibition of human MCF7 cells at 10^-5 M incubated for 48 hrs by sulforhodamine B assay. It is filed as functional. As to conditions: MCF7, 48 h, read-out: GI.
The test system of another assay is HCC 2998. Put plainly: Growth inhibition of human HCC2998 cells at 10^-5 M incubated for 48 hrs by sulforhodamine B assay. In kind it is functional. As to conditions: HCC 2998, 48 h, read-out: GI.
The test system of the next assay is MDA-MB-468. Briefly: Growth inhibition of human MDA-MB-468 cells at 10^-5 M incubated for 48 hrs by sulforhodamine B assay. In kind it is functional. Conditions: MDA-MB-468, 48 h, read-out: GI.
For another assay, the system named is MOLT-4. Briefly: Growth inhibition of human MOLT4 cells at 10^-5 M incubated for 48 hrs by sulforhodamine B assay. In kind it is functional. Conditions: MOLT-4, 48 h, read-out: GI.
A further assay deals with TK-10. Put plainly: Growth inhibition of human TK10 cells at 10^-5 M incubated for 48 hrs by sulforhodamine B assay. In kind it is functional. Conditions: TK-10, 48 h, read-out: GI.
For the next assay, the system named is SK-OV-3. Briefly: Growth inhibition of human SKOV3 cells at 10^-5 M incubated for 48 hrs by sulforhodamine B assay. It is filed as functional. Conditions: SK-OV-3, 48 h, read-out: GI.
Another assay has as its system NCI-H226. Put plainly: Growth inhibition of human NCI-H226 cells at 10^-5 M incubated for 48 hrs by sulforhodamine B assay. In kind it is functional. As to conditions: NCI-H226, 48 h, read-out: GI.
Assay [4] deals with UO-31. Briefly: Growth inhibition of human UO31 cells at 10^-5 M incubated for 48 hrs by sulforhodamine B assay. In kind it is functional. As to conditions: UO-31, 48 h, read-out: GI.
Another assay deals with NCI/ADR-RES. Put plainly: Growth inhibition of human NCI/ADR-RES cells at 10^-5 M incubated for 48 hrs by sulforhodamine B assay. It is filed as functional. As to conditions: read-out: GI.
The next assay deals with EKVX. Briefly: Growth inhibition of human EKVX cells at 10^-5 M incubated for 48 hrs by sulforhodamine B assay. As to conditions: read-out: GI. It is filed as functional.
A further assay concerns HOP-92. Briefly: Growth inhibition of human HOP92 cells at 10^-5 M incubated for 48 hrs by sulforhodamine B assay. In kind it is functional. As to conditions: HOP-92, 48 h, read-out: GI.
Another assay concerns A549. Briefly: Growth inhibition of human A549/ATCC cells at 10^-5 M incubated for 48 hrs by sulforhodamine B assay. In kind it is functional. Conditions: A549, 48 h, read-out: GI.
The next assay has as its system OVCAR-3. Briefly: Growth inhibition of human OVCAR3 cells at 10^-5 M incubated for 48 hrs by sulforhodamine B assay. In kind it is functional. Conditions: OVCAR-3, 48 h, read-out: GI.
For another assay, the system named is SN12C. Put plainly: Growth inhibition of human SN12C cells at 10^-5 M incubated for 48 hrs by sulforhodamine B assay. In kind it is functional. Conditions: read-out: GI.
A further assay has as its system A498. Put plainly: Growth inhibition of human A498 cells at 10^-5 M incubated for 48 hrs by sulforhodamine B assay. It is filed as functional. Conditions: A498, 48 h, read-out: GI.
The test system of the next assay is HT-29. Briefly: Growth inhibition of human HT-29 cells at 10^-5 M incubated for 48 hrs by sulforhodamine B assay. In kind it is functional. Conditions: HT-29, 48 h, read-out: GI.
Another assay deals with SW-620. Put plainly: Growth inhibition of human SW620 cells at 10^-5 M incubated for 48 hrs by sulforhodamine B assay. In kind it is functional. As to conditions: SW-620, 48 h, read-out: GI.
Another assay concerns MDA-MB-231. Briefly: Growth inhibition of human MDA-MB-231 cells at 10^-5 M incubated for 48 hrs by sulforhodamine B assay. It is filed as functional. Conditions: MDA-MB-231, 48 h, read-out: GI.
Another assay relates to KM12. Put plainly: Growth inhibition of human KM12 cells at 10^-5 M incubated for 48 hrs by sulforhodamine B assay. As to conditions: KM12, 48 h, read-out: GI. In kind it is functional.
In a further assay the test system is OVCAR-5. Briefly: Growth inhibition of human OVCAR5 cells at 10^-5 M incubated for 48 hrs by sulforhodamine B assay. In kind it is functional. As to conditions: OVCAR-5, 48 h, read-out: GI.
The subject of another assay is SR. Briefly: Growth inhibition of human SR cells at 10^-5 M incubated for 48 hrs by sulforhodamine B assay. Conditions: read-out: GI. It is filed as functional.
A further assay deals with ACHN. Put plainly: Growth inhibition of human ACHN cells at 10^-5 M incubated for 48 hrs by sulforhodamine B assay. In kind it is functional. As to conditions: read-out: GI.
The test system of another assay is DU-145. Briefly: Growth inhibition of human DU145 cells at 10^-5 M incubated for 48 hrs by sulforhodamine B assay. In kind it is functional. As to conditions: DU-145, 48 h, read-out: GI.
The next assay concerns Hs-578T. Briefly: Growth inhibition of human Hs 578T cells at 10^-5 M incubated for 48 hrs by sulforhodamine B assay. It is filed as functional. Conditions: read-out: GI.
Another assay has as its system NCI-H322M. Briefly: Growth inhibition of human NCI-H322M cells at 10^-5 M incubated for 48 hrs by sulforhodamine B assay. It is filed as functional. As to conditions: read-out: GI.
A further assay concerns HOP-62. Briefly: Growth inhibition of human HOP62 cells at 10^-5 M incubated for 48 hrs by sulforhodamine B assay. It is filed as functional. As to conditions: HOP-62, 48 h, read-out: GI.
Another assay concerns IGROV-1. Put plainly: Growth inhibition of human IGROV1 cells at 10^-5 M incubated for 48 hrs by sulforhodamine B assay. As to conditions: IGROV-1, 48 h, read-out: GI. In kind it is functional.
Another assay deals with OVCAR-8. Briefly: Growth inhibition of human OVCAR8 cells at 10^-5 M incubated for 48 hrs by sulforhodamine B assay. It is filed as functional. As to conditions: OVCAR-8, 48 h, read-out: GI.
In the next assay the test system is NCI-H522. Put plainly: Growth inhibition of human NCI-H522 cells at 10^-5 M incubated for 48 hrs by sulforhodamine B assay. It is filed as functional. Conditions: NCI-H522, 48 h, read-out: GI.
A further assay concerns RXF 393. Briefly: Growth inhibition of human RXF393 cells at 10^-5 M incubated for 48 hrs by sulforhodamine B assay. It is filed as functional. Conditions: RXF 393, 48 h, read-out: GI.
A further assay has as its system HL-60(TB). Put plainly: Growth inhibition of human HL-60(TB) cells at 10^-5 M incubated for 48 hrs by sulforhodamine B assay. It is filed as functional. Conditions: HL-60, 48 h, read-out: GI.
In the next assay the test system is BT-549. Briefly: Growth inhibition of human BT549 cells at 10^-5 M incubated for 48 hrs by sulforhodamine B assay. In kind it is functional. Conditions: BT-549, 48 h, read-out: GI.
A further assay relates to HCT-116. Put plainly: Growth inhibition of human HCT116 cells at 10^-5 M incubated for 48 hrs by sulforhodamine B assay. It is filed as functional. As to conditions: HCT-116, 48 h, read-out: GI.
Another assay has as its system OVCAR-4. Put plainly: Growth inhibition of human OVCAR4 cells at 10^-5 M incubated for 48 hrs by sulforhodamine B assay. In kind it is functional. Conditions: OVCAR-4, 48 h, read-out: GI.
For the next assay, the system named is HCT-15. Put plainly: Growth inhibition of human HCT15 cells at 10^-5 M incubated for 48 hrs by sulforhodamine B assay. In kind it is functional. As to conditions: HCT-15, 48 h, read-out: GI.
The next assay concerns K562. Briefly: Growth inhibition of human K562 cells at 10^-5 M incubated for 48 hrs by sulforhodamine B assay. In kind it is functional. Conditions: K562, 48 h, read-out: GI.
For the next assay, the system named is CCRF-CEM. Put plainly: Growth inhibition of human CCRF-CEM cells at 10^-5 M incubated for 48 hrs by sulforhodamine B assay. It is filed as functional. Conditions: read-out: GI.
For another assay, the system named is NCI-H460. Briefly: Growth inhibition of human NCI-H460 cells at 10^-5 M incubated for 48 hrs by sulforhodamine B assay. It is filed as functional. As to conditions: NCI-H460, 48 h, read-out: GI.
For the next assay, the system named is COLO 205. Briefly: Growth inhibition of human COLO205 cells at 10^-5 M incubated for 48 hrs by sulforhodamine B assay. Conditions: COLO 205, 48 h, read-out: GI. In kind it is functional.
For a further assay, the system named is NCI-H23. Briefly: Growth inhibition of human NCI-H23 cells at 10^-5 M incubated for 48 hrs by sulforhodamine B assay. It is filed as functional. Conditions: NCI-H23, 48 h, read-out: GI.
The next assay deals with 786-0. Put plainly: Growth inhibition of human 786-0 cells at 10^-5 M incubated for 48 hrs by sulforhodamine B assay. It is filed as functional. Conditions: 786-0, 48 h, read-out: GI.

For the compound `O=c1[nH]c(=S)[nH]c(-c2ccccc2)c1Cc1c(O)ccc2ccccc12` [CAMBINOL], the IC50 in the assay with UO-31 [1] is 98.6 µg/mL (≈ 274 µM); in the assay with MCF7 [2], 33.9 µg/mL (≈ 94.2 µM).

As to `O=C1CSC2=Nc3c(sc4ccc(Cl)cc34)C(c3cccc([N+](=O)[O-])c3)N12` (stereo unspecified), the inhibition of growth at 10 µM in the assay on CAKI-1 is 20%; in the assay on T47D, 8.22%; in the assay with PC-3, 1.11%; in the assay with MCF7 [3], 17.9%; in the assay with HCC 2998 it was -24.4%; with MDA-MB-468 it was 4.8%. Besides, the inhibition of growth at 10 µM in the assay on MOLT-4 is 8.28%; with TK-10, -14.8%; in the assay with SK-OV-3, 7.65%; in the assay with NCI-H226, 13.7%; with UO-31 [4], 38.3%; with NCI/ADR-RES, 12.2%. Further, the inhibition of growth at 10 µM with EKVX is 21.2%; in the assay with HOP-92 it was -8.65%; with A549 it was -1.88%; with OVCAR-3 it was 0.32%; with SN12C, 2.31%; in the assay on A498 it was -13.1%. The inhibition of growth at 10 µM with HT-29 was -8.35%; in the assay with SW-620 it was -3.15%; in the assay on MDA-MB-231, 10.8%; in the assay with KM12, -3.54%; with OVCAR-5 it was -6.83%; in the assay with SR it was 17.6%. Moreover, the inhibition of growth at 10 µM in the assay on ACHN is 3.93%; in the assay on DU-145, -14.2%; in the assay on Hs-578T it was -2.09%; with NCI-H322M, 5.33%; in the assay with HOP-62, 11%; in the assay with IGROV-1 it was 17.3%. Moreover, the inhibition of growth at 10 µM with OVCAR-8 is 0.58%; with NCI-H522 it was 9.11%; with RXF 393 it was -10.1%; in the assay on HL-60(TB), 5.48%; in the assay with BT-549, -21.8%; in the assay with HCT-116, -0.32%. In addition, the inhibition of growth at 10 µM with OVCAR-4 is 2.1%; with HCT-15 it was -1.95%; in the assay with K562, 6.39%; in the assay on CCRF-CEM it was -12%; with NCI-H460, -3.7%; with COLO 205, -4.05%. Moreover, the figures for the inhibition of growth at 10 µM with NCI-H23 and in the assay with 786-0 were 10.5% and -7.37%, respectively.
